Measurements taken from patent US4170649A, “1,4-Benzodiazepine derivatives, pharmaceutical compositions thereof, and process for their preparation” (Kali-Chemie Pharma GmbH, priority 1977, dated 1979).
Where two headings read alike, the source gives them in different places.

Experiments:
[1] = test system: hexobarbital-induced sleep in mice; test: CNS-depressant properties: prolongation of hexobarbital-induced sleep in mice; format: in vivo; details: Mus musculus, 0.5 h, oral, 64 mg/kg hexobarbital i.v. 30 minutes after application, 50% of animals with side-posture 4 times as long as control
Procedure: The test compounds are orally applied to mice. Additionally, a dose of 64 mg/kg of hexobarbital is injected, i.v., into the animals 30 minutes after application of the test compound. The point of time at which the animals lie down on their side and the duration of this side-posture are determined and are compared with the postural behavior of animals which are treated only with hexobarbital. The ED50 is defined as the dose which causes 50% of the animals to maintain the side-wise posture for a period of time which is 4 times as long as the period of time during which the control animals remain in their side-wise lying posture (see J. W. Kemp, M. Tannhaeuser and E. A. Swinyard, Arch. int. Pharmacodyn. 193 (1971), p. 37-47).

[2] = test system: pentetrazole-induced convulsions; test: Anti-convulsive activity against pentetrazole-induced spasms; format: in vivo; details: Mus musculus; oral, mice; 100 mg/kg pentetrazole s.c. 60 minutes after application; observed 45 minutes; read-out: Inhibition of Pentetrazole-induced convulsions ED50
Procedure: The protective effect of the test compounds against convulsion is determined after oral application to groups of six (6) mice each. 60 minutes after application of the test compounds, a doses of 100 mg/kg of pentetrazole is subcutaneously injected. The occurrance of clonic and tonic convulsions is observed during a total period of 45 minutes. the protective effect of the test compounds against convulsion is determined by comparison with simultaneously performed tests in control-animals. The effective dose ED50 is calculated from the probitlogarithmic dosage curves (according to a modified method disclosed by J. E. Blum et al, Arzneimittel-Forsch. 23, 377 (1973)).
The results which are obtained according to the above method, provide an indication of the anti-convulsive activity of the test compounds. In the pharmacological art, it is well-known that this anti-convulsive activity in animals is an important criterion for evaluating the clinical tranquilizer activity of compounds (see A. Suria and E. Costa, Journal de Pharmacologie, Suppl. No. 1, 5, 94 (1974) and G. Zbinden and L. O. Randall, Advances in Pharmacol. 5, 257, (1967)). The test results given in Table II show a clear superiority of the compounds according to the present invention as compared to chlordiazepoxide.

[3] = test system: isolation-induced aggressiveness in mice; test: Inhibition of isolation-induced aggressiveness in mice (anti-aggressive and anxiety-relieving activity); format: in vivo; details: Mus musculus, oral, isolated mice, 50% reduction of aggressive behavior
Procedure: Prior to carrying out the test, the mice are kept in strict isolation in single cages for a period of 4 weeks. After this period of isolation, mice which have been kept isolated spontaneously attack other mice which are introduced into their cage and had not been previously isolated. The test compounds are orally administered to the isolated mice and after a period of 30 minutes or 60 minutes after application, the dose which leads to a 50% reduction of the aggressive behavior is determined (according to a modified method described by Weischer and Opitz, Arch. int. Pharmacodyn. 195, 252 (1972)). The results which are obtained in this test are a valid indication of the activity of the tested compounds in relieving anxiety and stress-induced tensions.

[4] = Acute 7-day toxicity in mice (LD50); details: mouse, in vivo, white NMRI-mice not fed
Procedure: The acute 7-day-toxicity in white NMRI-mice is determined after administration of a single dose of the test compound per os or i.p. to the mice which had not been fed. The calculation of the LD50 is carried out by probitanalysis by means of electronic data processing (see L. Cavelli-Sforza, Gustav Fischer-Verlag, Stuttgart, (1964), Grundbegriffe der Biometrie, p. 153).

[5] = 0.5 h, 30 minutes after application, read-out: Inhibition of isolation-induced aggressiveness in mice ED50 (30')
[6] = 1 h, 60 minutes after application, read-out: Inhibition of isolation-induced aggressiveness in mice ED50 (60')
[7] = ip, single dose i.p., read-out: LD50 i.p.
[8] = po, single dose per os, read-out: LD50 p.o.

CN1C(=CC(N)=O)CN=C(c2ccccc2)c2cc(Cl)ccc21 [Compound No. 1, 7-chloro-1-methyl-2-carbamoylmethylene-5-phenyl-1,3-dihydro-2H-1,4-benzodiazepine]
ED50 [1]: 3.2 mg/kg | ED50 [2]: 2.4 mg/kg | ED50 [3, 5]: 12.2 mg/kg | ED50 [3, 6]: 9.6 mg/kg | LD50 at 168 h [4, 7]: 288 mg/kg | LD50 at 168 h [4, 8]: > 1470 mg/kg

CN1C(=CC(N)=O)CN=C(c2ccccc2Cl)c2cc(Cl)ccc21 [Compound No. 2, 7-chloro-1-methyl-2-carbamoylmethylene-5-(2'-chlorophenyl)-1,3-dihydro-2H-1,4-benzodiazepine]
ED50 [1]: 5 mg/kg | ED50 [2]: 0.1 mg/kg | ED50 [3, 5]: 2.2 mg/kg | ED50 [3, 6]: 3.4 mg/kg | LD50 at 168 h [4, 7]: 410 mg/kg | LD50 at 168 h [4, 8]: > 1000 mg/kg

CN1C(=CC(N)=O)CN=C(c2ccccc2F)c2cc(Cl)ccc21 [Compound No. 3, 7-chloro-1-methyl-2-carbamoylmethylene-5-(2'-fluorophenyl)-1,3-dihydro-2H-1,4-benzodiazepine]
ED50 [1]: 1.6 mg/kg | ED50 [2]: 0.4 mg/kg | ED50 [3, 5]: 2.1 mg/kg | ED50 [3, 6]: 3.9 mg/kg | LD50 at 168 h [4, 7]: 572 mg/kg | LD50 at 168 h [4, 8]: > 1470 mg/kg

CN1C(=CC(N)=O)CN=C(c2ccccc2C(F)(F)F)c2cc(Cl)ccc21 [Compound No. 4, 7-chloro-1-methyl-2-carbamoylmethylene-5-(2'-trifluoromethylphenyl)-1,3-dihydro-2H-1,4-benzodiazepine]
ED50 [1]: 3.1 mg/kg | ED50 [2]: 0.3 mg/kg | ED50 [3, 5]: 31.1 mg/kg | ED50 [3, 6]: 31.1 mg/kg | LD50 at 168 h [4, 7]: 287 mg/kg | LD50 at 168 h [4, 8]: > 1470 mg/kg

CN1C(=CC(N)=O)CN=C(c2ccccc2Cl)c2cc(Br)ccc21 [Compound No. 5, 7-bromo-1-methyl-2-carbamoylmethylene-5-(2'-chlorophenyl)-1,3-dihydro-2H-1,4-benzodiazepine]
ED50 [1]: 1.3 mg/kg | ED50 [2]: 0.3 mg/kg | ED50 [3, 5]: 5.4 mg/kg | ED50 [3, 6]: 4.6 mg/kg | LD50 at 168 h [4, 7]: > 1600 mg/kg | LD50 at 168 h [4, 8]: > 1470 mg/kg

CN1C(=CC(N)=O)CN=C(c2ccccc2F)c2cc(Br)ccc21 [Compound No. 6, 7-bromo-1-methyl-2-carbamoylmethylene-5-(2'-fluorophenyl)-1,3-dihydro-2H-1,4-benzodiazepine]
ED50 [1]: 2.6 mg/kg | ED50 [2]: 0.4 mg/kg | ED50 [3, 5]: 4.8 mg/kg | ED50 [3, 6]: 5.7 mg/kg | LD50 at 168 h [4, 7]: 574 mg/kg | LD50 at 168 h [4, 8]: > 1470 mg/kg

CN1C(=CC(N)=O)CN=C(c2ccccc2Cl)c2cc([N+](=O)[O-])ccc21 [Compound No. 7, 7-nitro-1-methyl-2-carbamoylmethylene-5-(2'-chlorophenyl)-1,3-dihydro-2H-1,4-benzodiazepine]
ED50 [1]: 2.5 mg/kg | ED50 [2]: 1 mg/kg | LD50 at 168 h [4, 8]: > 1470 mg/kg

CNC1=Nc2ccc(Cl)cc2C(c2ccccc2)=[N+]([O-])C1 [comparison, 7-chloro-2-methylamino-5-phenyl-3H-1,4-benzodiazepine-4-oxide, reference compound]
ED50 [1]: 6 mg/kg | ED50 [2]: 5 mg/kg | ED50 [3, 5]: 60 mg/kg | ED50 [3, 6]: 47 mg/kg | LD50 at 168 h [4, 7]: 300 mg/kg | LD50 at 168 h [4, 8]: 903 mg/kg
